Assay results from paper PMC5459853, “Cathepsin S inhibition combines control of systemic and peripheral pathomechanisms of autoimmune tissue injury” (Scientific Reports, 2017).

Assays:
Human Cat-S = Human Cat-S (Homo sapiens, UniProt P25774); assay: Enzymatic isoform-selectivity assay, human Cat-S; assay type: biochemical; settings: read-out: apparent IC50, human Cat-S
Description: (§1) RO5459072 was provided by F. Hoffmann-La Roche, Ltd., Basel, Switzerland. It is a competitive inhibitor of the active site of Cat-S and its nitrile function allows covalent reversible inhibition of Cat-S. The synthesis of RO5459072 has been described in WO 2010121918 and WO 2013068434. Recombinant cathepsins were produced in-house or were purchased from commercial vendors. Initial enzymatic assays to determine isoform-selectivity in vitro were performed as previously described, [23]. […] For this the Cat-S-dependent hydrolysis of the fluorogenic substrate Z-Phe-Arg-AMC (Sigma Aldrich) was followed at various inhibitor concentrations. The active fraction of Cat-S was detemined as 70% with a HPLC assay measuring modification of Cat-S with the covalent inhibitor LHVS. The buffer (100 mM potassium phosphate, 50 mM NaCl, 5 mM EDTA, 5 mM TCEP, pH 6) was thoroughly degassed prior to perfoming measurements to prevent oxidation of the catalytic cystein residue by dissolved oxygen. For the Ki-determination the substrate was employed at 10 µM = KM. All kinetic measurements were performad on a SFM-3000 stopped-flow instrument (Bio-Logic Science Instruments) and data were analyzed with GraphPad Prism v5.

MRL-(Fas)lpr mice = assay: Experimental lupus nephritis, late onset of treatment week 15 to 19; assay type: in vivo; settings: late onset week 15-19
Description: To further assess the potency of Cat-S inhibition to control advanced lupus nephritis we performed identical experiments with the highest dose of RO5459072 and MMF, which were not initiated before week 15 of age and continued for only 4 weeks and terminated again at week 19.
Four-week-old female MRL-(Fas)lpr mice were purchased from Harlan Winkelmann (Borchen, Germany) and kept under pathogen-free conditions in a 12 hour light and dark cycle with free access to food and water. All animal experiments were performed in accordance with the European protection laws of animal welfare, and with approval by the local government authorities Regierung von Oberbayern (reference number: 55.2.1-54-2532.2-11-12). At 11 or 15 weeks of age only mice with proteinuria (Albustix, Bayer AG, Leverkusen, Germany) were randomized into five different groups (n = 10) receiving different medicated diets: Three groups were fed with chow mixed with either 3, 10 or 30 mg/kg/day RO5459072, another group’s chow was mixed with 100 mg/kg/day mycophenolate mofetil (MMF), and one group received a standard diet (vehicle). The dose of MMF was chosen according to several studies reporting strong efficacy on SLE and lupus nephritis in MRL-(Fas)lpr mice[24]–[26]. […] At the age of 19 weeks all mice were sacrificed by cervical dislocation. Blood and urine samples were collected at different time points as indicated. In other experiments 7 week old female MRL-(Fas)lpr mice were randomized into three groups (n = 3) to receive a single intravenous injection of 10 µg sterile recombinant Cat-S and one group receiving vehicle (100 µl sterile PBS). One of the Cat-S groups was pretreated with 30 mg/kg/day RO5459072 starting one week prior to Cat-S injection; another group was pretreated with a total of four daily intra-peritoneal injections of the PAR-2 inhibitor GB83 (10 mg/kg).
Kidney tissue samples were collected from all mice and fixed overnight in 4% buffered formalin. Subsequently the fixed tissue samples were embedded in paraffin and cut into 4 µm thick serial sections. Kidney paraffin sections were stained with periodic acid-Schiff (PAS) reaction using standardized protocols as described. Scoring of lupus nephritis activity and chronicity indices was performed according to human lupus nephritis, [43]. Methenamine silver staining was performed on paraffin embedded kidney sections and semiquantitatively scored form 0–3 by a blinded observer. For immunostaining the following primary antibodies were used: anti-mouse CD3 (Abcam, Cambridge, UK), complement C3c (Biobyt Ltd, Cambridge, UK), CD31 (Dianova GmbH, Hamburg, Germany), WT1 (Santa Cruz Biotechnology, Dallas, Texas) and nephrin (Acris Antibodies, San Diego, CA). The immunostaining for C3c and CD31 were analyzed using the ImageJ software by measuring positively stained area and dividing it by the total area of the glomerulus and reported as percentage of +ve area. Sections stained for WT1/nephrin and CD3 were evaluated by counting positive cells per glomerulus. All the morphometric analysis were carried out in a blinded fashion.
Urinary albumin/creatinine ratios were determined using the Mouse Albumin ELISA Quantitation set (Bethyl Laboratories, Montgomery, TX) and the Creatinine FS kit (DiaSys Diagnostic Systems, Holzheim, Germany)[44]. BUN levels were determined in plasma samples using a Urea FS kit (DiaSys Diagnostic Systems). Mouse IgM, IgG and its isotypes IgG1, IgG2a and IgG2b plasma levels were measured using ELISA Sets (Bethyl Laboratories) at a plasma dilution of 1:1,000 to 1:100,000. Double-stranded DNA IgG and IgM antibodies were quantified as described. Briefly, 96 well Nunc-Immuno plates (Thermo Fisher Scientific, Roskilde, Denmark) were coated with poly-L-lysine (1:1 diluted with PBS) and incubated for two hours. After washing the plates, the plates were coated with 1 µg/ml mouse tail dsDNA sparing the wells for standards, which were coated with anti-mIgG and anti-mIgM (Bethyl Laboratories). […]

Human Cat-K = biological target: T1, Human Cat-K (Homo sapiens, UniProt P43235); assay: Enzymatic isoform-selectivity assay, Cat-K; assay type: biochemical
T1 sequence (P43235 115-329): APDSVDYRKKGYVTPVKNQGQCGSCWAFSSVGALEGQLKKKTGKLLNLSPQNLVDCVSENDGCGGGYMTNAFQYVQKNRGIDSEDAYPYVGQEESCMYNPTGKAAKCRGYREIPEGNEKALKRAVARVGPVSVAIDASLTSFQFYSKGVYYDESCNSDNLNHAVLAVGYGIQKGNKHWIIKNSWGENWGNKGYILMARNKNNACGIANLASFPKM
Description: as §1

Human Cat-L = Human Cat-L (Homo sapiens, UniProt P07711); assay: Enzymatic isoform-selectivity assay, Cat-L; assay type: biochemical
Human Cat-L, sequence (P07711 114-333): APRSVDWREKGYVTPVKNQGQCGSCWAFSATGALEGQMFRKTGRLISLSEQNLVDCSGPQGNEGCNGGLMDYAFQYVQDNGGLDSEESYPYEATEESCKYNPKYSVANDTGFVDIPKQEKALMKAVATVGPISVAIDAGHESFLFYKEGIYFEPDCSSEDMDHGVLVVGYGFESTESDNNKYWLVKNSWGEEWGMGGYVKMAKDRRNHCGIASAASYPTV
Description: as §1

Human Cat-S, sequence (P25774 115-331): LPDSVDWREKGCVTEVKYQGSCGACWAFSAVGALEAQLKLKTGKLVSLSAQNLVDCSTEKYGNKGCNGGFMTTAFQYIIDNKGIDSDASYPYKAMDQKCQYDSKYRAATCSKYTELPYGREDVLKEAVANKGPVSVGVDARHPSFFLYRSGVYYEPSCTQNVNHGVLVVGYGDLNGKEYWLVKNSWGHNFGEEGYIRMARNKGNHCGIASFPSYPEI

IC50 (Human Cat-S): 0.1 nM
IC50 (Human Cat-K): > 1000 nM
IC50, Human Cat-K (Human Cat-K): No sub-micro molar inhibition
IC50 (Human Cat-L): > 1000 nM
IC50, Human Cat-L (Human Cat-L): No sub-micro molar inhibition
Compound: Cn1cc(-c2ccc(S(=O)(=O)[C@@H]3C[C@@H](C(=O)NC4(C#N)CC4)N(C(=O)C4(C(F)(F)F)CC4)C3)c(C(F)(F)F)c2)cn1 [RO5459072]
lupus nephritis disease activity index (MRL-(Fas)lpr mice): significantly reduced
lupus nephritis disease chronicity index (MRL-(Fas)lpr mice): failed to significantly suppress
proteinuria and BUN at week 19 compared to control mice (MRL-(Fas)lpr mice): significantly reduced
plasma IgG and its isotypes and anti-dsDNA IgG (MRL-(Fas)lpr mice; highest dose of RO5459072, MMF): significantly suppressed
